Measurements published in publication PMC7440915, “Discovery of surrogate agonists for visceral fat Treg cells that modulate metabolic indices in vivo” (eLife, 2020).
“Also recorded” adds a separate entry of the source. Where no end group is shown, it is not given here.

System: vTreg53 Treg cells
Test: RNA-seq of transferred clonotype^+ Treg cells after immunization
Assay type: in vivo, mouse
Text: Figure 5. Transcriptional analyses of vTreg53 Treg cells stimulated by Fat1562 in vivo. (A–C) CD45.2^+ vTreg53 Treg cells were transferred i.v. into CD45.1^+ B6 mice. 6 weeks later, the recipient mice were immunized with CFA alone or CFA/Fat1562 s.c., and one week later, boosted with IFA alone or IFA/Fat1562 i.p. CD45.2^+ clonotype^+ Treg cells were sorted from Spl/LNs or VAT of the recipient mice one week later for RNA-Seq. (A) Volcano plot comparing gene expression of transferred clonotype^+ Treg cells in the VAT and Spl/LNs of recipient mice immunized with adjuvant alone (left) or with adjuvant/Fat1562 (right). VAT-Treg signature genes are highlighted in red (induced) or blue (repressed). The number of genes from each signature preferentially expressed by one or the other population are shown at the top. (B) GSEA analysis of top KEGG pathways (p<0.05) that are enriched in cells activated by adjuvant/Fat1562 compared with adjuvant alone in VAT (left) or Spl/LN (right). NES, normalized enrichment score. FDR, false discovery rate. (C) Normalized reads of Pparg transcript in CD45.2^+ clonotype^+ Treg cells sorted from mice immunized with adjuvant alone or adjuvant/Fat1562. Data are mean ± SD. (D) Volcano plot comparing gene expression of transferred clonotype^+ Treg cells in mice immunized with adjuvant/Fat1562 and adjuvant alone in the VAT (left) and spleen (right). Representative transcripts are highlighted.
6–8 week-old B6.CD45.1^+ mice were transferred with Tg^+ Treg cells from Spl/LNs, and six weeks later were primed with 200 μg CFA/peptides s.c. and boosted with 100 μg IFA/peptides i.p. as described in the ‘Treg transfer and peptide immunization’ section. Biological replicates (n ≥ 2) of 1000 clonotype^+ CD45.2^+ Treg cells from the Spl/LNs or VAT of recipient mice were double-sorted by Moflo directly into 5ɥl lysis buffer (TCL Buffer (Qiagen) with 1% 2-Mercaptoethanol), Smart-seq2 libraries were prepared as previously described ([Picelli et al., 2014]) with slight modifications. Briefly, total RNA was captured and purified on RNAClean XP beads (Beckman Coulter). Polyadenylated mRNA was then selected using an anchored oligo(dT) primer (5′–[…]30VN-3) and converted to cDNA via reverse transcription. First-strand cDNA was subjected to limited PCR amplification followed by Tn5 transposon-based fragmentation using the Nextera XT DNA Library Preparation Kit (Illumina). Samples were then PCR amplified for 18 cycles using barcoded primers such that each sample carried a specific combination of eight-base Illumina P5 and P7 barcodes and were pooled together prior to Smart sequencing. Smart-seq paired-end sequencing was performed on an Illumina NextSeq500 using 2 × 38 bp reads with no further trimming. Transcripts were quantified by the Broad Technology Labs computational pipeline with Cuffquant version 2.2.1 ([Trapnell et al., 2012]). Normalized reads were further filtered by minimal expression (>10) and coefficient of variation (<0.7), and then analyzed by Multiplot Studio in the GenePattern software package. Pathway enrichment analysis was done using GSEA.

TMYKNPRPMAATG [Fat1562]
Pparg mRNA levels in Spl/LN relative to VAT (Spl/LN vs Fat1562-stimulated VAT Treg cells): substantially lower | Pparg mRNA levels (Treg cells stimulated by Fat1562 in vivo (Spl/LN)): significantly increased; also recorded: increase in Pparg mRNA levels | Lag3 and Tigit expression (VAT, adjuvant/Fat1562 vs adjuvant alone): upregulated | pathway enrichment in VAT Treg cells, GSEA (VAT, adjuvant/Fat1562 vs adjuvant alone: cell division and glycolysis): significant enrichment in pathways and transcripts related to cell division (E2F targets, G2M checkpoint, MYC targets, Mitotic spindle) and glycolysis | VAT-Treg signature gene expression (clonotype^+ VAT Treg cells, adjuvant/Fat1562): preserved the typical VAT-Treg characteristics; also recorded: maintained the typical VAT-Treg signature | cholesterol homeostasis genes (lymphoid organs, adjuvant/Fat1562 vs adjuvant alone (e.g. Pparg, Nfil3, Srebf2)): enrichment of genes involved in cholesterol homeostasis | inflammatory cytokine response genes (lymphoid organs, adjuvant/Fat1562 vs adjuvant alone, IFNα, IFNγ, TNFα): increased expression of genes associated with responses to inflammatory cytokines (IFNα, IFNγ, and TNFα)
